The source of these data is PMC8545107 (mBio, 2021).

Series [1] deals with gallocin gene promoter (PgllA) in S. gallolyticus subsp. gallolyticus UCN34 Δgsp pTCVΩPgllA-gfp (receptor BlpH). The series can be described thus: Gallocin induction reporter gene assay (PgllA-gfp). Format: cell-based, Streptococcus gallolyticus subsp. gallolyticus. The note with it: reporter strain UCN34 Δgsp pTCVΩPgllA-gfp; maximum GFP fluorescence normalized with OD600; 37°C; triplicate, three trials, sigmoidal curve fit. The source says:
We first aimed at determining the active form of GSP in S. gallolyticus subsp. gallolyticus strain UCN34. GSP is derived from a 45-residue precursor encoded by gsp and is predicted to be processed to a 24-mer peptide by cleavage of the amino-terminal leader sequence after a double glycine motif and then exported to the extracellular environment by the BlpAB transporter. However, GSP was previously isolated as a 21-mer peptide from S. gallolyticus subsp. gallolyticus TX20005 ([10]). We first confirmed by mass spectrometry analysis that GSP isolated from culture supernatants of strain UCN34 was strictly identical to the 21-mer peptide previously purified from strain TX20005 (Fig. S1). […] Therefore, we chemically synthesized GSP 21-mer and GSP 24-mer peptides to test their efficiency in activating gallocin gene transcription. To do so, we used a reporter S. gallolyticus subsp. gallolyticus strain, UCN34, in which the endogenous gsp gene has been deleted and which contains a plasmid expressing gfp under the control of the gallocin gene promoter (PgllA) ([33]).
Fluorescence and absorbance measurements were recorded using a Biotek Synergy H1 microplate reader using Gen5 data analysis software (v. 3.03). Biological assays were performed in triplicate per trial. EC50s from three trials were calculated using GraphPad Prism software (v. 7.0) using a sigmoidal curve fit.
Stock solutions of peptides (1 mM) were prepared in dimethyl sulfoxide (DMSO) and stored at 4°C in sealed glass vials. […] Black polystyrene 96-well microtiter plates (Costar) were used for the GFP cell-based reporter assays.
Peptide stock solutions were serially diluted with DMSO in either 1:2, 1:3, or 1:5 dilutions, and 2 μl of the diluted solution was added to each of the wells in a black 96-well microtiter plate. Each concentration was tested in triplicate, with DMSO only used as a negative control. Screening of peptide analogs was conducted using the S. gallolyticus subsp. gallolyticus UCN34 Δgsp pTCVΩPgllA-gfp strain. An overnight culture was used to make a fresh 2-ml culture without EM using a 1:10 dilution on the day of the experiment and incubated in a CO2 incubator (37°C with 5% CO2) for 3 to 4 h to reach mid-log to late log phase of growth (OD600 = 0.6 to 0.9). A final 1:10 dilution was made on a larger scale (20 ml) without EM and used for the assay, where 198 μl diluted bacterial culture was added to each well of the microtiter plate containing peptides. Plates were incubated at 37°C with shaking at 200 rpm. Fluorescence (excitation, 485 nm; emission, 516 nm) and optical density at 600 nm (OD600) readings were recorded for each well using a plate reader. Measurements were taken 1 h after inoculation and were recorded every 20 to 30 min for up to 3 h to capture the maximum fluorescence signal. The maximum fluorescence signal was normalized with the OD600 value and used to construct dose curves to determine the EC50.

The nature of series [2]: washed UCN34 Δgsp cells in sterile saline solution (0.9% [wt/vol] NaCl). The note with it: S. gallolyticus subsp. gallolyticus UCN34 Δgsp, 37°C, up to 30 min.
Series [3] can be described thus: S. mutans ΔcomC washed cells in saline solution. The note with it: S. mutans SMCC3 (ΔcomC), 37°C, up to 30 min.
The nature of series [4]: washed UCN34 ΔsepM cells in sterile saline solution (0.9% [wt/vol] NaCl). The note with it: S. gallolyticus subsp. gallolyticus UCN34 ΔsepM, 37°C, up to 30 min.

No end group written: not given here. Bounds are passed on as bounds.

DFLIVGPFDALKKNHKPTKHA [GSP W10A]: the concentration giving a half-maximal response (EC50) in series [1] was more than 1000 nM.
For DFLIVGPFDWLKKNHKPT [GSP-des-K19-A21], the EC50 in series [1] was more than 1000 nM.
On the same count and under the same terms, the same measure for DFLIVGPFDWLKKNHKPTAHA [GSP K19A]: 106 nM.
With DFLIVGPFDWLKKNHKPTK [GSP-des-H20-A21], in series [1], the EC50 was more than 1000 nM.
On the same count and under the same terms, the same measure for DFLIVGPFDWLKKNHKPTKH [GSP-des-A21]: more than 1000 nM.
On to DFLIVGPFDWLKKNHKPTKHA, for which the cleaved bond result is given as “L3-I4, 30 min” in series [2] and “L3-I4, 30 min” in series [3].
Consider KNKDFLIVGPFDWLKKNHKPTKHA, for which, in series [2], the cleaved bond entry is “L3-I4, 30 min” and the not cleaved entry was “Degradation of KNK-GSP to GSP was not observed (30 min)”. Further, in series [4], the cleaved bond result was “L3-I4, 30 min” and the not cleaved entry is “Degradation of KNK-GSP to GSP was not observed (30 min)”.
LKKNHKPTKHA [GSP-des-D1-W10]: the EC50 in series [1] is more than 1000 nM.
